According to the NIST ThermoML archive (doi:10.1016/j.jct.2005.04.019):
Numbers after ± are expanded uncertainties.

Columns and labels:
[1] = 298.15 K, 101.33 kPa, Liquid; for viscosity: Capillary tube (Ostwald / Ubbelohde) method; for mass density: Vibrating tube method; for speed of sound: Quartz crystal interferometer (Mittal Enterprises, India)
[2] = xn = mol fraction of the nth substance listed; settings: 298.15 K, 101 kPa, Liquid; for speed of sound: Quartz crystal interferometer (Mittal Enterprises, India)

For `CCCCCC(C)O` (stereo unspecified) [2-heptanol], which viscosity [1] is on record?
The viscosity was 5.346 ± 0.039 mPa·s.

What about the mass density [1] of the same molecule?
The mass density was 813.33 ± 0.42 kg/m3.

Which speed of sound ([2]; x2 = 0.0998) does the source give for `CCCCCC(C)O` (stereo unspecified) [2-heptanol] + CC1CCCCC1 here?
The speed of sound was 1278 ± 4 m/s.

What about the speed of sound ([2]; x2 = 0.1479) of the same molecule?
Its speed of sound is 1272 ± 4 m/s.

What about the speed of sound ([2]; x2 = 0.206) of the same molecule?
Its speed of sound is 1263 ± 4 m/s.

What about the speed of sound ([2]; x2 = 0.3053) of the same molecule?
Its speed of sound is 1250 ± 4 m/s.

And the speed of sound ([2]; x2 = 0.3966)?
Its speed of sound is 1239 ± 4 m/s.

And the speed of sound ([2]; x2 = 0.5005)?
The speed of sound was 1229 ± 4 m/s.

What about the speed of sound ([2]; x2 = 0.5973) of the same molecule?
The speed of sound was 1223 ± 4 m/s.

What about the speed of sound ([2]; x2 = 0.7017) of the same molecule?
Its speed of sound is 1223 ± 4 m/s.

And the speed of sound ([2]; x2 = 0.7974)?
The speed of sound was 1222 ± 4 m/s.

And the speed of sound ([2]; x2 = 0.9017)?
The speed of sound was 1219 ± 4 m/s.

And the speed of sound ([2]; x2 = 0.9514)?
Its speed of sound is 1215 ± 4 m/s.

What about the mass density ([2]; x2 = 0.103) of the same molecule?
The mass density was 808.34 ± 0.46 kg/m3.

What about the viscosity ([2]; x2 = 0.103) of the same molecule?
The viscosity was 3.935 ± 0.048 mPa·s.

What about the mass density ([2]; x2 = 0.1524) of the same molecule?
The mass density was 805.84 ± 0.46 kg/m3.

And the viscosity ([2]; x2 = 0.1524)?
Its viscosity is 3.415 ± 0.042 mPa·s.

What about the mass density ([2]; x2 = 0.2071) of the same molecule?
Its mass density is 803.04 ± 0.46 kg/m3.

And the viscosity ([2]; x2 = 0.2071)?
The viscosity was 2.945 ± 0.036 mPa·s.

What about the mass density ([2]; x2 = 0.2564) of the same molecule?
Its mass density is 800.53 ± 0.46 kg/m3.

And the viscosity ([2]; x2 = 0.2564)?
Its viscosity is 2.587 ± 0.032 mPa·s.

And the mass density ([2]; x2 = 0.3047)?
Its mass density is 798.08 ± 0.46 kg/m3.

And the viscosity ([2]; x2 = 0.3047)?
Its viscosity is 2.287 ± 0.029 mPa·s.

What about the mass density ([2]; x2 = 0.3558) of the same molecule?
Its mass density is 795.52 ± 0.46 kg/m3.

And the viscosity ([2]; x2 = 0.3558)?
Its viscosity is 2.013 ± 0.025 mPa·s.

And the mass density ([2]; x2 = 0.4019)?
The mass density was 793.23 ± 0.46 kg/m3.

And the viscosity ([2]; x2 = 0.4019)?
Its viscosity is 1.817 ± 0.023 mPa·s.

What about the mass density ([2]; x2 = 0.4469) of the same molecule?
The mass density was 791.02 ± 0.46 kg/m3.

And the viscosity ([2]; x2 = 0.4469)?
Its viscosity is 1.649 ± 0.021 mPa·s.

What about the mass density ([2]; x2 = 0.4951) of the same molecule?
The mass density was 788.67 ± 0.46 kg/m3.

What about the viscosity ([2]; x2 = 0.4951) of the same molecule?
Its viscosity is 1.49 ± 0.019 mPa·s.

And the mass density ([2]; x2 = 0.5969)?
The mass density was 783.72 ± 0.46 kg/m3.

And the viscosity ([2]; x2 = 0.5969)?
The viscosity was 1.225 ± 0.016 mPa·s.

And the mass density ([2]; x2 = 0.703)?
The mass density was 778.57 ± 0.46 kg/m3.

What about the viscosity ([2]; x2 = 0.703) of the same molecule?
Its viscosity is 1.017 ± 0.014 mPa·s.

What about the mass density ([2]; x2 = 0.7979) of the same molecule?
The mass density was 773.96 ± 0.46 kg/m3.

What about the viscosity ([2]; x2 = 0.7979) of the same molecule?
Its viscosity is 0.879 ± 0.012 mPa·s.

And the mass density ([2]; x2 = 0.8883)?
The mass density was 769.71 ± 0.46 kg/m3.

What about the viscosity ([2]; x2 = 0.8883) of the same molecule?
The viscosity was 0.773 ± 0.011 mPa·s.

What does the source list for `CCCCC(C)O` (stereo unspecified) [2-hexanol]?
viscosity [1]: 4.204 ± 0.048 mPa·s; mass density [1]: 810.25 ± 0.83 kg/m3

For `CCCCC(C)O` (stereo unspecified) [2-hexanol] + CC1CCCCC1, which speed of sound ([2]; x2 = 0.1002) is on record?
Its speed of sound is 1252 ± 4 m/s.

What about the speed of sound ([2]; x2 = 0.2041) of the same molecule?
Its speed of sound is 1239 ± 4 m/s.

And the speed of sound ([2]; x2 = 0.2837)?
The speed of sound was 1231 ± 4 m/s.

And the speed of sound ([2]; x2 = 0.3521)?
Its speed of sound is 1225 ± 4 m/s.

And the speed of sound ([2]; x2 = 0.3989)?
The speed of sound was 1222 ± 4 m/s.

What about the speed of sound ([2]; x2 = 0.4948) of the same molecule?
Its speed of sound is 1216 ± 4 m/s.

What about the speed of sound ([2]; x2 = 0.5978) of the same molecule?
Its speed of sound is 1212 ± 4 m/s.

What about the speed of sound ([2]; x2 = 0.6904) of the same molecule?
The speed of sound was 1209 ± 4 m/s.

What about the speed of sound ([2]; x2 = 0.808) of the same molecule?
The speed of sound was 1208 ± 4 m/s.

And the speed of sound ([2]; x2 = 0.8967)?
Its speed of sound is 1214 ± 4 m/s.

And the speed of sound ([2]; x2 = 0.9509)?
Its speed of sound is 1215 ± 4 m/s.

What about the mass density ([2]; x2 = 0.1017) of the same molecule?
Its mass density is 804.9 ± 0.81 kg/m3.

And the viscosity ([2]; x2 = 0.1017)?
Its viscosity is 3.089 ± 0.045 mPa·s.

And the mass density ([2]; x2 = 0.1514)?
The mass density was 802.31 ± 0.79 kg/m3.

What about the viscosity ([2]; x2 = 0.1514) of the same molecule?
Its viscosity is 2.701 ± 0.039 mPa·s.

And the mass density ([2]; x2 = 0.2026)?
Its mass density is 799.67 ± 0.76 kg/m3.

What about the viscosity ([2]; x2 = 0.2026) of the same molecule?
The viscosity was 2.344 ± 0.034 mPa·s.

And the mass density ([2]; x2 = 0.2473)?
The mass density was 797.41 ± 0.75 kg/m3.

What about the viscosity ([2]; x2 = 0.2473) of the same molecule?
Its viscosity is 2.082 ± 0.03 mPa·s.

What about the mass density ([2]; x2 = 0.2995) of the same molecule?
Its mass density is 794.85 ± 0.72 kg/m3.

And the viscosity ([2]; x2 = 0.2995)?
The viscosity was 1.836 ± 0.026 mPa·s.

And the mass density ([2]; x2 = 0.3508)?
Its mass density is 792.24 ± 0.7 kg/m3.

And the viscosity ([2]; x2 = 0.3508)?
Its viscosity is 1.632 ± 0.023 mPa·s.

What about the mass density ([2]; x2 = 0.4019) of the same molecule?
The mass density was 789.75 ± 0.68 kg/m3.

What about the viscosity ([2]; x2 = 0.4019) of the same molecule?
Its viscosity is 1.468 ± 0.021 mPa·s.

And the mass density ([2]; x2 = 0.452)?
The mass density was 787.34 ± 0.66 kg/m3.

And the viscosity ([2]; x2 = 0.452)?
The viscosity was 1.345 ± 0.019 mPa·s.

And the mass density ([2]; x2 = 0.4972)?
Its mass density is 785.2 ± 0.64 kg/m3.

And the viscosity ([2]; x2 = 0.4972)?
Its viscosity is 1.227 ± 0.017 mPa·s.

And the mass density ([2]; x2 = 0.5955)?
Its mass density is 780.68 ± 0.6 kg/m3.

What about the viscosity ([2]; x2 = 0.5955) of the same molecule?
The viscosity was 1.052 ± 0.015 mPa·s.

And the mass density ([2]; x2 = 0.6956)?
The mass density was 776.28 ± 0.57 kg/m3.

And the viscosity ([2]; x2 = 0.6956)?
The viscosity was 0.917 ± 0.013 mPa·s.

And the mass density ([2]; x2 = 0.8089)?
Its mass density is 771.63 ± 0.52 kg/m3.

What about the viscosity ([2]; x2 = 0.8089) of the same molecule?
Its viscosity is 0.798 ± 0.011 mPa·s.

And the mass density ([2]; x2 = 0.8987)?
Its mass density is 768.24 ± 0.49 kg/m3.

What about the viscosity ([2]; x2 = 0.8987) of the same molecule?
The viscosity was 0.729 ± 0.01 mPa·s.

With `CCCCCCC(C)O` (stereo unspecified) [2-octanol] as the molecule, how does the viscosity [1] read?
Its viscosity is 6.568 ± 0.1 mPa·s.

What about the mass density [1] of the same molecule?
The mass density was 816.13 ± 1.3 kg/m3.

What does the source list for `CCCCCCC(C)O` (stereo unspecified) [2-octanol] + CC1CCCCC1?
speed of sound ([2]; x2 = 0.1001): 1292 ± 4 m/s; speed of sound ([2]; x2 = 0.2032): 1282 ± 4 m/s; speed of sound ([2]; x2 = 0.3003): 1269 ± 4 m/s; speed of sound ([2]; x2 = 0.4001): 1258 ± 4 m/s; speed of sound ([2]; x2 = 0.5043): 1247 ± 4 m/s; speed of sound ([2]; x2 = 0.5973): 1239 ± 4 m/s; speed of sound ([2]; x2 = 0.6889): 1231 ± 4 m/s; speed of sound ([2]; x2 = 0.8109): 1222 ± 4 m/s; speed of sound ([2]; x2 = 0.9008): 1219 ± 4 m/s; speed of sound ([2]; x2 = 0.9466): 1216 ± 4 m/s; mass density ([2]; x2 = 0.1006): 811.52 ± 1.2 kg/m3; viscosity ([2]; x2 = 0.1006): 4.941 ± 0.088 mPa·s; mass density ([2]; x2 = 0.1185): 810.68 ± 1.2 kg/m3; viscosity ([2]; x2 = 0.1185): 4.692 ± 0.083 mPa·s; mass density ([2]; x2 = 0.1672): 808.39 ± 1.1 kg/m3; viscosity ([2]; x2 = 0.1672): 4.097 ± 0.071 mPa·s; mass density ([2]; x2 = 0.2104): 806.32 ± 1.1 kg/m3; viscosity ([2]; x2 = 0.2104): 3.651 ± 0.062 mPa·s; mass density ([2]; x2 = 0.2489): 804.45 ± 1.1 kg/m3; viscosity ([2]; x2 = 0.2489): 3.308 ± 0.055 mPa·s; mass density ([2]; x2 = 0.2536): 804.22 ± 1.1 kg/m3; viscosity ([2]; x2 = 0.2536): 3.263 ± 0.055 mPa·s; mass density ([2]; x2 = 0.3171): 801.09 ± 0.99 kg/m3; viscosity ([2]; x2 = 0.3171): 2.769 ± 0.045 mPa·s; mass density ([2]; x2 = 0.347): 799.59 ± 0.97 kg/m3; viscosity ([2]; x2 = 0.347): 2.58 ± 0.042 mPa·s; mass density ([2]; x2 = 0.3979): 797.02 ± 0.93 kg/m3; viscosity ([2]; x2 = 0.3979): 2.268 ± 0.036 mPa·s; mass density ([2]; x2 = 0.4503): 794.35 ± 0.88 kg/m3; viscosity ([2]; x2 = 0.4503): 2.022 ± 0.032 mPa·s; mass density ([2]; x2 = 0.5168): 790.9 ± 0.83 kg/m3; viscosity ([2]; x2 = 0.5168): 1.72 ± 0.026 mPa·s; mass density ([2]; x2 = 0.5766): 787.77 ± 0.78 kg/m3; viscosity ([2]; x2 = 0.5766): 1.5 ± 0.023 mPa·s; mass density ([2]; x2 = 0.5969): 786.69 ± 0.76 kg/m3; viscosity ([2]; x2 = 0.5969): 1.443 ± 0.022 mPa·s; mass density ([2]; x2 = 0.684): 782.06 ± 0.69 kg/m3; viscosity ([2]; x2 = 0.684): 1.199 ± 0.017 mPa·s; mass density ([2]; x2 = 0.8058): 775.5 ± 0.6 kg/m3; viscosity ([2]; x2 = 0.8058): 0.943 ± 0.013 mPa·s; mass density ([2]; x2 = 0.9002): 770.39 ± 0.53 kg/m3; viscosity ([2]; x2 = 0.9002): 0.793 ± 0.011 mPa·s

What does the source list for `CCC(C)O` (stereo unspecified) [butan-2-ol]?
viscosity [1]: 2.907 ± 0.022 mPa·s; speed of sound [1]: 1213 ± 2 m/s; mass density [1]: 802.54 ± 0.42 kg/m3

Which results are given for `CCO` [ethanol]?
viscosity [1]: 1.093 ± 0.009 mPa·s; speed of sound [1]: 1145 ± 2 m/s; mass density [1]: 785.32 ± 0.41 kg/m3

Which results are given for `CC1CCCCC1` [methylcyclohexane]?
viscosity [1]: 0.683 ± 0.007 mPa·s; speed of sound [1]: 1209 ± 2 m/s; mass density [1]: 764.99 ± 0.41 kg/m3
